In patent US20070254863A1 (priority 2006, published 2007):
Like-named read-outs stand apart in the source and are kept apart here.

Experiments:
rat SUR2A = rat SUR2A (Rattus norvegicus, UniProt Q63563); assay: In vitro binding affinity to rodent KATP channels: SUR2A ([3H]P1075 / [3H]glibenclamide displacement, COS cell membranes)
Outline: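 COS-cell membranes transiently expressing rat SUR2A incubated 1 h at room temperature in 50 mM Tris pH 7.4, ~0.7 mM free Mg2+, with 3 nM [3H]P1075 (wild type) or [3H]glibenclamide (SUR2AY1205S); filtration read-out. Ki from IC50, reported as pKi; 9-15 concentrations per curve.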

[1] = system: rat perifused pancreatic islets; assay: KATP opening effects through insulin secretion in rat perifused pancreatic islets; assay type: cell-based; conditions: 11 mM glucose; for % Inhibition 0-30 (insulin secretion): 0-30 minutes; for % Inhibition 30-60 (insulin secretion): 30-60 minutes
Experimental: Determination of the KATP Opening Effects of Compounds Through Insulin Secretion in Rat Perifused Pancreatic Islets
The animals were maintained on a 12 h light-dark cycle (lights on 06.00-18.00 h) with free access to standard rodent diet (B&K Universal Ltd standard rat and mouse diet (BK 001P), Beekay Feeds, B&K Universal Ltd, Hull, East Riding of Yorkshire) and tap water. The rats were conditioned to this environment for at least one week before experimentation.
Experimental procedures: After the rats were sacrificed, the branch of the bile duct leading to the liver and the duodenal end of the duct in the pancreas were clamped and the pancreas distended by injection of ice-cold 0.9 mg/ml collagenase solution into the bile duct. […] Following incubation, 10 ml of cold buffer was added and the suspension shaken vigorously by hand for 1 min. The islets were allowed to settle for 5 min on ice and washed three times using ice-cold buffer. Well-formed and good-sized islets from three rats were hand-picked (under a low power microscope) and pooled and a final selection of islet transferred to the perifusion apparatus.
Two experiments were performed in parallel in two identical, independent sets of perifusion apparatus each consisting of sufficient number of chambers. Each chamber was loaded with 20 hand-picked islets. Islets were perifused for an initial 30 min period in media containing 4 mM glucose. Perifusate was then collected at 2 min intervals for the remainder of the experiment. […] Perifusate fractions were stored at −75° C. until required for insulin assay. Insulin content of fractions were assayed using a 96-well ELISA assay (Mercodia). Initial insulin assays were performed in triplicate on three pooled fractions from each chamber.
Data were initially expressed as a simple mean of the three experiments for insulin secretion (pg/islet/min) and multiple t-tests (against the corresponding vehicle time period) used to determine potential significant effects of treatments. Alternatively, data were also calculated as a % vehicle effect for each experimental day. This latter approach was deemed to be the more powerful analysis as it corrected for the day to day variation in insulin release from the islets.

[2] = molecular target: human cannabinoid CB2 receptor (Homo sapiens, UniProt P34972); assay: biochemical; assay type: binding
Experimental: 3. In Vitro Binding Affinity of the Test Compounds to CB2 Receptors
After incubation of a freshly prepared cell membrane preparation with the [^3H]-ligand, with or without the addition of the compounds described herein, separation of bound and free ligand is performed by filtration over glass-fiber filters. Radioactivity on the filter is measured by liquid scintillation counting.

hamster SUR1 = molecular target: T1, hamster SUR1 (Cricetus cricetus, UniProt Q09427); assay: In vitro binding affinity to rodent KATP channels: SUR1 ([3H]glibenclamide displacement, COS cell membranes); conditions: hamster SUR1 in COS cell membranes; read-out: Affinity to SUR 1 (converted)
T1 construct: expressed in transfected cells; host or cells: COS-1 cells, transient (pcDNA vector)

[3] = cloned human CB2 receptor expressed in CHO cells, read-out: Affinity to CB2 (converted)

Sequence of human cannabinoid CB2 receptor (P34972 whole entry): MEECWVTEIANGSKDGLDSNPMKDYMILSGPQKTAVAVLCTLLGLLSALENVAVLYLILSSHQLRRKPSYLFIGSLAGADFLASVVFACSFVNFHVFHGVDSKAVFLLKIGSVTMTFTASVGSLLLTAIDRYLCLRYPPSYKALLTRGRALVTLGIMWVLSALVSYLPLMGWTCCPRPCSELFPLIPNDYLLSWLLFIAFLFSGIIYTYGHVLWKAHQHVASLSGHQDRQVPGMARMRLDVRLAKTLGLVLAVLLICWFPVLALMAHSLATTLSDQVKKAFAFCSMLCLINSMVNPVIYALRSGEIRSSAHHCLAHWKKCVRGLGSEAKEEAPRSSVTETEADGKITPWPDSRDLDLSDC
T1 sequence (Q09427 whole entry): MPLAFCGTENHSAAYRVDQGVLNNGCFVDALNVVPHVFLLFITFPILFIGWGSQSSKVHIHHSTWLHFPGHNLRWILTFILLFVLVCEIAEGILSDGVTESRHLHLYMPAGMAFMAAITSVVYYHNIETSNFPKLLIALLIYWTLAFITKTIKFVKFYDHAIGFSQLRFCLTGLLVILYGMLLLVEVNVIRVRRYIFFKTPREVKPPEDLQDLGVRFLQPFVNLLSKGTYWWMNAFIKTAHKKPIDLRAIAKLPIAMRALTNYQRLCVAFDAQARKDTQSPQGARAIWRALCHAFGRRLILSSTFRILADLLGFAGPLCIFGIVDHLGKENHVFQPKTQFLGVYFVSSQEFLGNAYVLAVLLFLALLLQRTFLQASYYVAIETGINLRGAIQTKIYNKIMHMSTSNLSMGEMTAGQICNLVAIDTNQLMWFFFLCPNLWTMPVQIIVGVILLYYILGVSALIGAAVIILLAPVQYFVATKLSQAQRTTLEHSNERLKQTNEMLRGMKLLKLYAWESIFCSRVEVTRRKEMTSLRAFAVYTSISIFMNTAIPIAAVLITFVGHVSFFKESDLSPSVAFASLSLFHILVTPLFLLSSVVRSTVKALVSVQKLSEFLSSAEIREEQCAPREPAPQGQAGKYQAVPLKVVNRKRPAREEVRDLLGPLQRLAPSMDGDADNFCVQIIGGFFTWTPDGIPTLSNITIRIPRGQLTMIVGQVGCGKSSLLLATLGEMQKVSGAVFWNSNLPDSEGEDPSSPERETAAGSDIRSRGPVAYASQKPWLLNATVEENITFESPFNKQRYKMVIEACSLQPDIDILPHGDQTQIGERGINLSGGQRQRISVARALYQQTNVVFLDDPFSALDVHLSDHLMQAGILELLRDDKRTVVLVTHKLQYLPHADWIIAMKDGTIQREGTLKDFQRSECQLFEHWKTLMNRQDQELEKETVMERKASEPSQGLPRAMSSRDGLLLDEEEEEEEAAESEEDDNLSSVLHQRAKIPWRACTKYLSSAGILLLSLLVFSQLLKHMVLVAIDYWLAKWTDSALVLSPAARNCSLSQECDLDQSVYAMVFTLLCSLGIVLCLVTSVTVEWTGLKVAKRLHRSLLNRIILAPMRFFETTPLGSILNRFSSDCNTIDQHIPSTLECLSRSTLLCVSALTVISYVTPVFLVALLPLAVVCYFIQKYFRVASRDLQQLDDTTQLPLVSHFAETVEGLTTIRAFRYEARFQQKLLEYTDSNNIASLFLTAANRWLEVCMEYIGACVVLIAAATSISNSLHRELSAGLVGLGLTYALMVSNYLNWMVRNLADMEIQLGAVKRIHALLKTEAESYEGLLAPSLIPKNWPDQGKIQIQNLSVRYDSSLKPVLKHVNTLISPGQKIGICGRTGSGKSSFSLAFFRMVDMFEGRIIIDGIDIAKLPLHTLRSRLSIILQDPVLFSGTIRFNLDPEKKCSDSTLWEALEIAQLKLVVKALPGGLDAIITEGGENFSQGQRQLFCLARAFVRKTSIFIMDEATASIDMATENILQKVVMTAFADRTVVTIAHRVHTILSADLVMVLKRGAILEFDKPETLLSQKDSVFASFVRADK
Sequence of rat SUR2A (Q63563 whole entry): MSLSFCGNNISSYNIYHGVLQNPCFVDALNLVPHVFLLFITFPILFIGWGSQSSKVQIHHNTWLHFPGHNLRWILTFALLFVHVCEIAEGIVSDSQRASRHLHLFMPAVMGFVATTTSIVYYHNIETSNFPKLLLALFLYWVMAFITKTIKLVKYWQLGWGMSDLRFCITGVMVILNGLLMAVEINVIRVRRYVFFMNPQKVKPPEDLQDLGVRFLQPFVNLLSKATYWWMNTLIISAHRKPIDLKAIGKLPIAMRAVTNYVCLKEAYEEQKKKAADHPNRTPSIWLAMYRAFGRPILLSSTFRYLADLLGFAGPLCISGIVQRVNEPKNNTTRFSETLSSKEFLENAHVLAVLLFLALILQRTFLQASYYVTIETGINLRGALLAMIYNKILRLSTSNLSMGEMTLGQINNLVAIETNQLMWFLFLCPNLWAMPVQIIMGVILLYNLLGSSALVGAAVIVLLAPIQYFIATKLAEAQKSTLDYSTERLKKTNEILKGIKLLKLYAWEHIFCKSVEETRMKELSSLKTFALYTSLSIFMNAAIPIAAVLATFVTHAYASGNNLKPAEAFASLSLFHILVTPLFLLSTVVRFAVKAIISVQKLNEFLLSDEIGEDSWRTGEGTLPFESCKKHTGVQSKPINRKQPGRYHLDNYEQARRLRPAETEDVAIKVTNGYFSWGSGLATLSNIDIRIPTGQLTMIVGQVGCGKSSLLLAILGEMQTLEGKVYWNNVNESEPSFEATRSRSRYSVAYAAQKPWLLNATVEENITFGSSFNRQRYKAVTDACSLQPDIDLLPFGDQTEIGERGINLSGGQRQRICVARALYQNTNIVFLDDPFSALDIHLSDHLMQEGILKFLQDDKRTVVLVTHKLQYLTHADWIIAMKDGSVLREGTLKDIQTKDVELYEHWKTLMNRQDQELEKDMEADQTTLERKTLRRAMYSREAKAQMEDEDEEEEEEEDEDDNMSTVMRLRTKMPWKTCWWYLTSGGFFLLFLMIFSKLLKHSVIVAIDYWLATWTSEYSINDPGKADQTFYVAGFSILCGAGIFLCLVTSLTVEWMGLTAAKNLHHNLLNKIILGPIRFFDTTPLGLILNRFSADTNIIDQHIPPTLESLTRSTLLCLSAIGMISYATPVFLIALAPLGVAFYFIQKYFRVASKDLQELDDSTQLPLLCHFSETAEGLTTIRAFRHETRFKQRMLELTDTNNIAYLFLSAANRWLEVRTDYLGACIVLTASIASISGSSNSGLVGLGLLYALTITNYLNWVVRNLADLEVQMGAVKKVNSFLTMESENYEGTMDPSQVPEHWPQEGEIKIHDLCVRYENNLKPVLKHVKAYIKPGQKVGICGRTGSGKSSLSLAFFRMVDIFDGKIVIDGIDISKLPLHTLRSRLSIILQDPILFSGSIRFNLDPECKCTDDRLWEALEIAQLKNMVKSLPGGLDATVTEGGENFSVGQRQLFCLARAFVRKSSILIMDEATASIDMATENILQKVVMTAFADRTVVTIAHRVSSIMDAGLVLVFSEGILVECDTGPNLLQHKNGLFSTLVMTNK

Structure (SMILES): CCc1c(C(=O)NN2CCCCC2)nc(-c2ccccc2Cl)n1-c1ccc(Cl)cc1 [1-(4-Chloro-phenyl)-2-(2-chloro-phenyl)-5-ethyl-1H-imidazole-4-carboxylic acid piperidin-1-ylamide, reference compound]
- pKi (rat SUR2A): 4.8
- % Inhibition 0-30 (insulin secretion) [1]: 59%
- % Inhibition 30-60 (insulin secretion) [1]: 45%
- Ki [2]: 1 µM

Structure (SMILES): CSc1c(C(=O)NN2CCCCC2)nc(-c2ccccc2Cl)n1-c1ccc(Cl)cc1 [1-(4-Chloro-phenyl)-2-(2-chloro-phenyl)-5-methylsulfanyl-1H-imidazole-4-carboxylic acid piperidin-1-ylamide]
- % Inhibition 0-30 (insulin secretion) [1]: 56%
- % Inhibition 30-60 (insulin secretion) [1]: 36%
- Ki [2, 3]: 6.31 µM
- Ki (hamster SUR1): 0.00631 µM

Structure (SMILES): CN1CCCCC1Cn1cc(C(=O)c2cc([N+](=O)[O-])ccc2I)c2ccccc21 (stereo not drawn) [AM-1241, (2-Iodo-5-nitro-phenyl)-[1-(1-methyl-piperidin-2-ylmethyl)-1H-indol-3-yl]-methanone, reference compound]
- % Inhibition 0-30 (insulin secretion) [1]: 97%
- % Inhibition 30-60 (insulin secretion) [1]: 74%
- Ki [2, 3]: 0.0158 µM
- Ki (hamster SUR1): 3.98 µM

Structure (SMILES): CN/C(=N\S(=O)(=O)N(C)C)N1CC(c2cccc(F)c2)C(c2ccc(Cl)cc2)=N1 (stereo not drawn) [N-{[3-(4-Chloro-phenyl)-4-(3-fluoro-phenyl)-4,5-dihydro-pyrazol-1-yl]-methylamino-methylene}-N,N-dimethyl-sulfonamide]
- pKi (rat SUR2A): 5.3
- % Inhibition 0-30 (insulin secretion) [1]: 72%
- % Inhibition 30-60 (insulin secretion) [1]: 77%
- Ki (hamster SUR1): 0.1 µM

Structure (SMILES): CNC(=NS(=O)(=O)N1CCCCC1)C1=NN(c2ccc(Cl)cc2)C(c2ccccc2)C1 (stereo not drawn) [Piperidine-1-sulfonic acid [1-(4-chloro-phenyl)-5-phenyl-4,5-dihydro-1H-pyrazol-3-yl]-methylamino-methyleneamide]
- pKi (rat SUR2A): 4.5
- % Inhibition 0-30 (insulin secretion) [1]: 84%
- % Inhibition 30-60 (insulin secretion) [1]: 47%
- Ki (hamster SUR1): 0.794 µM

Structure (SMILES): CN(C)CCNC(=NS(=O)(=O)N1CCCCC1)N1CC(c2ccccc2)C(c2ccc(Cl)cc2)=N1 (stereo not drawn) [Piperidine-1-sulfonic acid [3-(4-chloro-phenyl)-4-phenyl-4,5-dihydro-pyrazol-1-yl]-(2-dimethylamino-ethylamino)-methyleneamide]
- pKi (rat SUR2A): 4.0
- % Inhibition 0-30 (insulin secretion) [1]: 71%
- % Inhibition 30-60 (insulin secretion) [1]: 64%
- Ki (hamster SUR1): 100 µM
